Assay results published in patent publication US8222219B2, “Glucopyranoside compound” (Mitsubishi Tanabe Pharma Corporation, priority 2003, dated 2012).

Tests used:
human SGLT2 = target: T1, human SGLT2 (Homo sapiens, UniProt P31639); experiment: Assay for SGLT2 inhibition (14C-AMG uptake in CHOK1 cells expressing human SGLT2); assay type: cell-based; settings: CHOK1 cells expressing human SGLT2; 14C-AMG uptake 0.5 mM, 2 hours at 37° C.; read-out: IC50
T1 construct: expressed in transfected cells; host or cells: CHOK1 (CHO-K1) cells, kept under Geneticin selection
T1 sequence (P31639 1-672): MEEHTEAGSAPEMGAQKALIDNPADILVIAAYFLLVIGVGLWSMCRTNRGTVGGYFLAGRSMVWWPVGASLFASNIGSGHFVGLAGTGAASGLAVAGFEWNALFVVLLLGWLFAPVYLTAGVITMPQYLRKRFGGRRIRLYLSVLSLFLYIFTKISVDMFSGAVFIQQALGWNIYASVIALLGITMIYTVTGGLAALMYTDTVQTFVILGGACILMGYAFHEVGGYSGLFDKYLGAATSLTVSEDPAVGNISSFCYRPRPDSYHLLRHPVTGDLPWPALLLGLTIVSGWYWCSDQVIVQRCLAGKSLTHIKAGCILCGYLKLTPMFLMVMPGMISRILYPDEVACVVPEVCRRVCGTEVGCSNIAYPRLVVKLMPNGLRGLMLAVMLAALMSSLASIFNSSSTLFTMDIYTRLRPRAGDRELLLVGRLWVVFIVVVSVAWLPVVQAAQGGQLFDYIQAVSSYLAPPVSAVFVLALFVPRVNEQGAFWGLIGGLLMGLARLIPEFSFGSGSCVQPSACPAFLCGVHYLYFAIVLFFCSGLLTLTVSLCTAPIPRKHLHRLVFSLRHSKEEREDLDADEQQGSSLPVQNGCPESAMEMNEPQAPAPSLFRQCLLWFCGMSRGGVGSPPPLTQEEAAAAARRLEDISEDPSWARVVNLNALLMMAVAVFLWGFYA
Protocol: 1. Assay for SGLT2 Inhibition
Compounds described in the above examples were used for the SGLT2 inhibition assay.
CHOK1 cells expressing human SGLT2 were seeded in 24-well plates at a density of 400,000 cells/well in F-12 nutrient mixture (Ham's F-12) containing 10% fetal bovine serum, 400 μg/ml Geneticin, 50 units/ml sodium penicillin G (Gibco-BRL) and 50 μg/ml streptomycin sulfate. […] Test compounds were dissolved in DMSO. The final concentration of DMSO was 0.5%. The transport reaction was initiated by addition of 50 μl [^14C]-methyl-α-D-glucopyranoside (^14C-AMG) solution (final concentration, 0.5 mM). After incubation for 2 hours at 37° C., the uptake was stopped by aspiration of the incubation mixture, the cells were washed three times with ice-cold PBS. Then, cells were solubilized with 0.3 N NaOH and aliquots were taken for determination of radioactivity by a liquid scintillation counter. Nonspecific AMG uptake was defined as that which occurred in the presence of 100 μM of phlorizin, a specific inhibitor of sodium-dependent glucose cotransporter. Specific uptake was normalized for the protein concentrations measured by the method of Bradford.

Sprague-Dawley (SD) rats = experiment: Urinary glucose excretion test in rats; assay type: in vivo, rat; settings: male SD rats, 30 mg/kg oral gavage, urine collected for 24 hours; daily amount of glucose excreted per individual
Protocol: 2. Urinary Glucose Excretion Test in Rats Test Compounds:
Compounds described in the above examples were used for the urinary glucose excretion test in rats.
6-week-old male Sprague-Dawley (SD) rats were housed in individual metabolic cages with free access to food and water from 2 days prior to the experiment. On the morning of the experiment, rats were administered vehicle (0.2% carboxymethyl cellulose solution containing 0.2% Tween80) or test compounds (30 mg/kg) by oral gavage at a volume of 10 ml/kg. Then, urine of the rat was collected for 24 hours, and the urine volume was measured. Subsequently, the glucose concentration in urine was quantified using the enzymatic assay kit and the daily amount of glucose excreted in urine per individual was calculated.

SMILES | IC50 (human SGLT2) | Urinary glucose (Sprague-Dawley (SD) rats) | melting point
COc1ccc(-c2ccc(Cc3cc([C@@H]4O[C@H](CO)[C@@H](O)[C@H](O)[C@H]4O)ccc3Cl)s2)cn1 [Example 169, 1-(β-D-glucopyranosyl)-4-chloro-3-(5-(6-methoxy-3-pyridyl)-2-thienylmethyl)benzene] | 3.6 nM | B (2000 mg>B≧1000 mg) | 
COc1cccc(-c2ccc(Cc3cc([C@@H]4O[C@H](CO)[C@@H](O)[C@H](O)[C@H]4O)ccc3Cl)s2)n1 [Example 170, 1-(β-D-glucopyranosyl)-4-chloro-3-(5-(6-methoxy-2-pyridyl)-2-thienylmethyl)benzene] | 3.5 nM | B (2000 mg>B≧1000 mg) | 
Cc1ccc([C@@H]2O[C@H](CO)[C@@H](O)[C@H](O)[C@H]2O)cc1Cc1ccc(-c2ccc(F)c(F)c2)s1 [Example 177, 1-(β-D-glucopyranosyl)-3-(5-(3,4-difluorophenyl)-2-thienylmethyl)-4-methylbenzene] | 6.7 nM | A (A≧2000 mg) | 
OC[C@H]1O[C@@H](c2ccc(Cl)c(Cc3ccc(-c4cccc(C(F)F)c4)s3)c2)[C@H](O)[C@@H](O)[C@@H]1O [Example 178, 1-(β-D-glucopyranosyl)-4-chloro-3-(5-(3-difluoromethylphenyl)-2-thienylmethyl)benzene] | 5.1 nM | B (2000 mg>B≧1000 mg) | 
N#Cc1cccc(-c2ccc(Cc3cc([C@@H]4O[C@H](CO)[C@@H](O)[C@H](O)[C@H]4O)ccc3F)s2)c1 [Example 189, 1-(β-D-glucopyranosyl)-4-fluoro-3-(5-(3-cyanophenyl)-2-thienylmethyl)benzene] | 2.4 nM | B (2000 mg>B≧1000 mg) | 127 to 129 °C
OC[C@H]1O[C@@H](c2ccc(F)c(Cc3ccc(-c4nccs4)s3)c2)[C@H](O)[C@@H](O)[C@@H]1O [Example 190, 1-(β-D-glucopyranosyl)-4-fluoro-3-(5-(2-thiazolyl)-2-thienylmethyl)benzene] | 3.1 nM |  | 161.5 to 162 °C
OC[C@H]1O[C@@H](c2ccc(Cl)c(Cc3ccc(-c4ccc(F)cn4)s3)c2)[C@H](O)[C@@H](O)[C@@H]1O [Example 194, 1-(β-D-glucopyranosyl)-4-chloro-3-(5-(5-fluoropyridin-2-yl)-2-thienylmethyl)benzene] | 2.6 nM | A (A≧2000 mg) | 
